In US9890153B2, “Substituted 1H-pyrrolo [2, 3-b] pyridine and 1H-pyrazolo [3, 4-b] pyridine derivatives as salt inducible kinase 2 (SIK2) inhibitors” (Arrien Pharmaceuticals LLC, priority 2012, dated 2018) one finds IC50 data, which are given here for 38 compounds.

One assay deals with SIK2 (QIK) (SEQ ID NO: 11) (Homo sapiens, UniProt Q9H0K1). Description: SIK2 kinase assay (radiometric, 10 μM ATP). The format is biochemical. Particulars: compounds purchased from vendor library, read-out: SIK2 IC50. How it is done: Procedure: Enzyme was incubated with substrate peptide in reaction buffer in the presence and absence of test compounds or Staurosporine. All additions were done on ice, followed by the addition of ATP mix. Wells were uniformly mixed using an Eppendorff plate shaker and incubated at 30° C. for 20 min, and stopped by the addition of 5 μL of 3% phosphoric acid. Volume was increased to 100 μL by adding 0.8% phosphoric acid which was then transferred to PC filter mats (Millipore), pre-equilibrated with 70% ethanol and water. Plates were washed thrice with 100 μL 0.8% phosphoric acid and dried for an hour at 60° C.
Sequence of SIK2 (QIK) (SEQ ID NO: 11) (Q9H0K1 whole entry): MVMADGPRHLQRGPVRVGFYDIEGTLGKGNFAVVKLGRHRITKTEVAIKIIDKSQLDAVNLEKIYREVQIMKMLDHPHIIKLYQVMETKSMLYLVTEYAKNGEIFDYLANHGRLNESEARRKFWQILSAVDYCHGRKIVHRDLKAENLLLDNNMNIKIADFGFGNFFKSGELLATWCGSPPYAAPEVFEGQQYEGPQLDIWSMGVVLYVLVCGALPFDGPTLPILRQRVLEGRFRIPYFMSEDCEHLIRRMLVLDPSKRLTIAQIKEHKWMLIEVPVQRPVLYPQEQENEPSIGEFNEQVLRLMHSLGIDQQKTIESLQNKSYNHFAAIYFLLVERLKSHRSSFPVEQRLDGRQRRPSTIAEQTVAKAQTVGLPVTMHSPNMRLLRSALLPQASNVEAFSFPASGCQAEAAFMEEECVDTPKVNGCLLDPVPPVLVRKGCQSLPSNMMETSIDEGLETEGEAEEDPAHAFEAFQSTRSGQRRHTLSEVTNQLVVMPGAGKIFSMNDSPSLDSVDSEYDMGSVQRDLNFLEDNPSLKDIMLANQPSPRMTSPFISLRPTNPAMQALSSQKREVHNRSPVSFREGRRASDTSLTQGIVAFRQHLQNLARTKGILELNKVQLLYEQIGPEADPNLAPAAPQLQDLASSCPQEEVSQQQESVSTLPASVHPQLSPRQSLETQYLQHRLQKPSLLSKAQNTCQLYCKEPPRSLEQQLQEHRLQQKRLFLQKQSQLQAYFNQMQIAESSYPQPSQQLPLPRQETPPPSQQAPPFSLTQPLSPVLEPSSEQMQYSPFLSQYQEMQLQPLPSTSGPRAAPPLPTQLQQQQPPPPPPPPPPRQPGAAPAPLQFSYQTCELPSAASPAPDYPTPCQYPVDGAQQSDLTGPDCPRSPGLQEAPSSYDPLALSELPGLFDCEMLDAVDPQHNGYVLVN
As for `COc1ccc(-c2ccnc3[nH]nc(-c4cccnc4)c23)cc1OC` [compound 1, 4-(3,4-dimethoxyphenyl)-3-(pyridin-3-yl)-1H-pyrazolo[3,4-b]pyridine], the IC50 was > 100 nM. Consider `FC(F)(F)c1cccc(-c2ccnc3[nH]nc(-c4ccc5c(c4)OCO5)c23)c1` [compound 2, 3-(benzo[d][1,3]dioxol-5-yl)-4-(3-(trifluoromethyl)phenyl)-1H-pyrazolo[3,4-b]pyridine], for which the IC50 was > 1000 nM. Regarding `COc1cc(-c2ccnc3[nH]nc(-c4cccc(NS(C)(=O)=O)c4)c23)cc(OC)c1OC` [compound 3, N-(3-(4-(3,4,5-trimethoxyphenyl)-1H-pyrazolo[3,4-b]pyridin-3-yl)phenyl)methanesulfonamide], the IC50 is > 1000 nM. Still for that read-out and setting: for `COc1cc(-c2n[nH]c3nccc(-c4cccc(C(=O)NCCN(C)C)c4)c23)cc(OC)c1OC` [compound 4, N-(2-(dimethylamino)ethyl)-3-(3-(3,4,5-trimethoxyphenyl)-1H-pyrazolo[3,4-b]pyridin-4-yl)benzamide] the value was > 1000 nM; for `COc1ccccc1-c1n[nH]c2nccc(-c3ccsc3)c12` [compound 5, 3-(2-methoxyphenyl)-4-(thiophen-3-yl)-1H-pyrazolo[3,4-b]pyridine], < 100 nM; for `COc1cc(-c2n[nH]c3nccc(-c4ccc(C(C)C)cc4)c23)cc(OC)c1OC` [compound 6, 4-(4-isopropylphenyl)-3-(3,4,5-trimethoxyphenyl)-1H-pyrazolo[3,4-b]pyridine], > 100 nM. On the same count and under the same terms, for `OCCNC(O)c1cccc(-c2n[nH]c3nccc(-c4cccc(C(F)(F)F)c4)c23)c1` (stereo not drawn) [compound 7, 2-((hydroxy(3-(4-(3-(trifluoromethyl)phenyl)-1H-pyrazolo[3,4-b]pyridin-3-yl)phenyl)methyl)amino)ethanol] the value was > 1000 nM.

On to `COc1cccc(-c2ccnc3[nH]nc(-c4cccc(C(F)(F)F)c4)c23)c1` [compound 8, 4-(3-methoxyphenyl)-3-(3-(trifluoromethyl)phenyl)-1H-pyrazolo[3,4-b]pyridine], for which the IC50 is > 1000 nM. For `COc1cc(-c2n[nH]c3nccc(-c4cccc(N(C)C)c4)c23)cc(OC)c1OC` [compound 9, N,N-dimethyl-3-(3-(3,4,5-trimethoxyphenyl)-1H-pyrazolo[3,4-b]pyridin-4-yl)aniline], the IC50 was > 1000 nM. The same measure, in the same setting: for `COc1ccccc1-c1n[nH]c2nccc(-c3ccoc3)c12` [compound 10, 4-(furan-3-yl)-3-(2-methoxyphenyl)-1H-pyrazolo[3,4-b]pyridine] the value was < 100 nM; for `COc1cc(-c2n[nH]c3nccc(-c4cccc(C(N)=O)c4)c23)cc(OC)c1OC` [compound 11, 3-(3-(3,4,5-trimethoxyphenyl)-1H-pyrazolo[3,4-b]pyridin-4-yl)benzamide], > 1000 nM; for `CNC(=O)c1cccc(-c2ccnc3[nH]nc(-c4cccc(C(F)(F)F)c4)c23)c1` [compound 12, N-methyl-3-(3-(3-(trifluoromethyl)phenyl)-1H-pyrazolo[3,4-b]pyridin-4-yl)benzamide], > 1000 nM.

Staying with this assay, now noted: read-out: SIK2 (QIK) (SEQ ID NO: 11) kinase inhibition result.
On to `COc1ccc(-c2n[nH]c3nccc(-c4ccsc4)c23)cc1` [Example 7, 3-(4-methoxyphenyl)-4-(thiophen-3-yl)-1H-pyrazolo[3,4-b]pyridine], for which the IC50 was > 100 nM. For the compound `c1cc(-c2ccsc2)c2cc[nH]c2n1` [Example 20, 4-(thiophen-3-yl)-1H-pyrrolo[2,3-b]pyridine], the IC50 is > 1000 nM. For `Fc1ccccc1-c1c[nH]c2nccc(-c3ccsc3)c12` [Example 22, 3-(2-fluorophenyl)-4-(thiophen-3-yl)-1H-pyrrolo[2,3-b]pyridine], the IC50 is > 1000 nM. Take `Fc1cccc(-c2c[nH]c3nccc(-c4ccsc4)c23)c1Cl` [Example 23, 3-(2-chloro-3-fluorophenyl)-4-(thiophen-3-yl)-1H-pyrrolo[2,3-b]pyridine]: the IC50 is > 100 nM. As for `COc1cc(Cl)ccc1-c1c[nH]c2nccc(-c3ccsc3)c12` [Example 24, 3-(4-chloro-2-methoxyphenyl)-4-(thiophen-3-yl)-1H-pyrrolo[2,3-b]pyridine], the IC50 was > 100 nM. For `COc1ccc(-c2c[nH]c3nccc(-c4ccsc4)c23)cc1` [Example 25, 3-(4-methoxyphenyl)-4-(thiophen-3-yl)-1H-pyrrolo[2,3-b]pyridine], the IC50 was > 1000 nM. As to `CCOc1ccccc1-c1c[nH]c2nccc(-c3ccsc3)c12` [Example 26, 3-(2-ethoxyphenyl)-4-(thiophen-3-yl)-1H-pyrrolo[2,3-b]pyridine], the IC50 is > 100 nM. `COc1cc(F)ccc1-c1c[nH]c2nccc(-c3ccsc3)c12` [Example 28, 3-(4-fluoro-2-methoxyphenyl)-4-(thiophen-3-yl)-1H-pyrrolo[2,3-b]pyridine]: the IC50 was > 100 nM. With `Clc1ccnc2[nH]cc(-c3ccsc3)c12` [Example 29, 4-chloro-3-(thiophen-3-yl)-1H-pyrrolo[2,3-b]pyridine], the IC50 was > 100 nM.

With `COc1ccccc1-c1ccnc2[nH]cc(-c3ccsc3)c12` [Example 30, 4-(2-methoxyphenyl)-3-(thiophen-3-yl)-1H-pyrrolo[2,3-b]pyridine], the IC50 is > 1000 nM.

Regarding `COc1ncccc1-c1c[nH]c2nccc(-c3ccsc3)c12` [Example 36, 3-(2-methoxypyridin-3-yl)-4-(thiophen-3-yl)-1H-pyrrolo[2,3-b]pyridine], the IC50 was > 100 nM.

`c1cnc(N2CCOCC2)c(-c2c[nH]c3nccc(-c4ccsc4)c23)c1` [Example 37, 4-(3-(4-(thiophen-3-yl)-1H-pyrrolo[2,3-b]pyridin-3-yl)pyridin-2-yl)morpholine]: the IC50 was > 100 nM. On to `Clc1cccc(-c2c[nH]c3nccc(-c4ccsc4)c23)c1` [Example 47, 3-(3-chlorophenyl)-4-(thiophen-3-yl)-1H-pyrrolo[2,3-b]pyridine], for which the IC50 is > 100 nM. On to `COc1ccc(-c2n[nH]c3nccc(-c4ccsc4)c23)c(OC)c1` [Example 87, 3-(2,4-dimethoxyphenyl)-4-(thiophen-3-yl)-1H-pyrazolo[3,4-b]pyridine], for which the IC50 is > 100 nM. Regarding `CN(C)S(=O)(=O)c1ccccc1-c1c[nH]c2nccc(-c3ccsc3)c12` [Example 94, N,N-dimethyl-2-(4-(thiophen-3-yl)-1H-pyrrolo[2,3-b]pyridin-3-yl)benzenesulfonamide], the IC50 was > 1000 nM. Consider `FC(F)(F)Oc1ccccc1-c1c[nH]c2nccc(-c3ccsc3)c12` [Example 99, 4-(thiophen-3-yl)-3-(2-(trifluoromethoxy)phenyl)-1H-pyrrolo[2,3-b]pyridine], for which the IC50 was > 1000 nM.

As for `Fc1cc(OC(F)(F)F)ccc1-c1c[nH]c2nccc(-c3ccsc3)c12` [Example 100, 3-(2-fluoro-4-(trifluoromethoxy)phenyl)-4-(thiophen-3-yl)-1H-pyrrolo[2,3-b]pyridine], the IC50 was > 1000 nM.

Regarding `COc1ccc(-c2c[nH]c3nccc(-c4ccsc4)c23)c(OC)n1` [Example 101, 3-(2,6-dimethoxypyridin-3-yl)-4-(thiophen-3-yl)-1H-pyrrolo[2,3-b]pyridine], the IC50 was > 100 nM. For the compound `COc1ccccc1-c1c[nH]c2ncc(-c3ccsc3)cc12` [Example 113, 3-(2-methoxyphenyl)-5-(thiophen-3-yl)-1H-pyrrolo[2,3-b]pyridine], the IC50 is > 100 nM. The same measure, in the same setting: for `COc1c(F)cccc1-c1c[nH]c2ncc(-c3ccsc3)cc12` [Example 125, 3-(3-fluoro-2-methoxyphenyl)-5-(thiophen-3-yl)-1H-pyrrolo[2,3-b]pyridine] the value was < 100 nM.

Turning to `COc1c(F)cc(F)cc1-c1c[nH]c2ncc(-c3ccsc3)cc12` [Example 126, 3-(3,5-difluoro-2-methoxyphenyl)-5-(thiophen-3-yl)-1H-pyrrolo[2,3-b]pyridine], the IC50 is > 1000 nM. With `N#Cc1ccc(-c2cnc3[nH]cc(-c4cccc(F)c4Cl)c3c2)s1` [Example 132, 5-(3-(2-chloro-3-fluorophenyl)-1H-pyrrolo[2,3-b]pyridin-5-yl)thiophene-2-carbonitrile], the IC50 was > 100 nM. `Cc1ncc(-c2cnc3[nH]cc(-c4cccc(F)c4Cl)c3c2)s1` [Example 137, 5-(3-(2-chloro-3-fluorophenyl)-1H-pyrrolo[2,3-b]pyridin-5-yl)-2-methylthiazole]: the IC50 is > 100 nM. `Clc1ccccc1-c1c[nH]c2ncc(-c3ccsc3)cc12` [Example 139, 3-(2-chlorophenyl)-5-(thiophen-3-yl)-1H-pyrrolo[2,3-b]pyridine]: the IC50 was > 1000 nM.

For `Fc1ccc(-c2c[nH]c3ncc(-c4ccsc4)cc23)cc1Cl` [Example 140, 3-(3-chloro-4-fluorophenyl)-5-(thiophen-3-yl)-1H-pyrrolo[2,3-b]pyridine], the IC50 was > 1000 nM.

For the next assay, the target named is T1, SIK1 (SEQ ID NO: 10) (Homo sapiens, UniProt P57059).
T1 construct: Reaction Biology Corporation (assay service, HotSpot panel)
T1 sequence (P57059 whole entry): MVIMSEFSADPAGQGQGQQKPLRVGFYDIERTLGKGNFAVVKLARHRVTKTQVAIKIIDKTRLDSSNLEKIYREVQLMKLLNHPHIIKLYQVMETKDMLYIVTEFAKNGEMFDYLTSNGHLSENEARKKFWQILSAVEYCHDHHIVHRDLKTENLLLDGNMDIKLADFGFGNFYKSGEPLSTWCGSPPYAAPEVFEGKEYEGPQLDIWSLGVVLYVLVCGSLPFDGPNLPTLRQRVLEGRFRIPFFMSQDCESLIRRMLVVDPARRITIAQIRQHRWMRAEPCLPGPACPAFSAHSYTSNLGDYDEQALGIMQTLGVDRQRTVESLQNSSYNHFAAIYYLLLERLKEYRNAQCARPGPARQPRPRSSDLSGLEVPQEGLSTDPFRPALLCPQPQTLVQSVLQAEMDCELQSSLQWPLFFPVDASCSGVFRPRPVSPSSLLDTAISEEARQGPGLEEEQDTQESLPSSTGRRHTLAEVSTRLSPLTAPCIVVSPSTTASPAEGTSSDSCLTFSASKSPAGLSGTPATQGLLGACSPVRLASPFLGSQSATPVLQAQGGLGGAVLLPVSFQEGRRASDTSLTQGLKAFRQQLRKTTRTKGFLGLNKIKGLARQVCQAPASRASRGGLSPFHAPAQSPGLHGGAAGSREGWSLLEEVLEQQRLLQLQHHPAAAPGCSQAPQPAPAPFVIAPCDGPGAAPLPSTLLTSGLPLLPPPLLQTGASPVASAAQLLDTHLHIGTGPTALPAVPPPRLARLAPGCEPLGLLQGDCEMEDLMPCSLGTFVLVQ
Put plainly: Protein kinase assay, SIK1. Type of assay: biochemical. The settings on record: read-out: SIK1 (SEQ ID NO: 10) kinase inhibition result. How it is done:
Briefly, specific kinase/substrate pairs along with required cofactors were prepared in reaction buffer; 20 mM Hepes (pH 7.5), 10 mMmgCl2, 1 mM EGTA, 0.02% Brij35, 0.02 mg/ml BSA, 0.1 mM Na3VO4, 2 mM DTT, 1% DMSO. Compounds were delivered into the reaction, followed ˜20 min later by addition of a mixture of ATP (Sigma) and 33P ATP (PerkinElmer) to a final concentration of 10 μM. […] IC50 values and curve fits were obtained using Prism (GraphPad Software). Kinome tree representations were prepared using Kinome Mapper (http://www.reactionbiology.com/apps/kinome/mapper/LaunchKinome.htm).
Take `COc1ncccc1-c1c[nH]c2nccc(-c3ccsc3)c12` [Example 36, 3-(2-methoxypyridin-3-yl)-4-(thiophen-3-yl)-1H-pyrrolo[2,3-b]pyridine]: the IC50 is > 100 nM. Consider `c1cnc(N2CCOCC2)c(-c2c[nH]c3nccc(-c4ccsc4)c23)c1` [Example 37, 4-(3-(4-(thiophen-3-yl)-1H-pyrrolo[2,3-b]pyridin-3-yl)pyridin-2-yl)morpholine], for which the IC50 was > 100 nM.

Regarding `COc1ccc(-c2n[nH]c3nccc(-c4ccsc4)c23)c(OC)c1` [Example 87, 3-(2,4-dimethoxyphenyl)-4-(thiophen-3-yl)-1H-pyrazolo[3,4-b]pyridine], the IC50 was > 1000 nM.

As to `COc1c(F)cccc1-c1c[nH]c2ncc(-c3ccsc3)cc12` [Example 125, 3-(3-fluoro-2-methoxyphenyl)-5-(thiophen-3-yl)-1H-pyrrolo[2,3-b]pyridine], the IC50 was > 1000 nM. The same measure, in the same setting: for `COc1c(F)cc(F)cc1-c1c[nH]c2ncc(-c3cnn(C4CCN(S(C)(=O)=O)CC4)c3)cc12` [Example 214, 3-(3,5-difluoro-2-methoxyphenyl)-5-(1-(1-(methylsulfonyl)piperidin-4-yl)-1H-pyrazol-4-yl)-1H-pyrrolo[2,3-b]pyridine] the value was > 1000 nM.
